Square brackets hold non-standard residues; d marks the D form. Peptide text beside a SMILES is read from it. Ala(indol-4-yl) = N[C@@H](Cc1cccc2[nH]ccc12)C(=O)O; NMeR = CN[C@@H](CCCNC(=N)N)C(=O)O; Tle = CC(C)(C)[C@H](N)C(=O)O
How the values were obtained:
rat NTR1 = target: T1, rat NTR1 (Rattus norvegicus, UniProt P20789); assay: PI turnover ([3H]IP1) in intact CHO-K1 cells, rat NTR1; assay type: cell-based
T1 construct: expressed in transfected cells; host or cells: CHO-K1
Method: (§1) To measure PI turnover, intact CHO-K1 cells were harvested at about 80% confluency. Cells were detached from the petri plates by removal of culture medium followed by incubation of the cellular monolayer for 20 minutes at 37° C. with gentle shaking in a modified Puck's D1 solution containing 2 mM EGTA. […] Briefly, intact CHO cells were prelabeled with D-myo-[^3H]inositol (18.3 Ci/mmol) in the presence of lithium chloride (final concentration, 10 mM). […] For the experiments described herein, the stimulation time was 30 minutes, and the number of CHO cells per assay tube was 1.5×10^5.

human NTR1 [1] = target: T2, human NTR1 (Homo sapiens, UniProt P30989); assay: Competition binding with [3H]NT, membranes of CHO-K1 cells transfected with human NTR1
T2 construct: expressed in transfected cells; host or cells: CHO-K1
Method: CHO-K1 cells were stably transfected with nucleic acid encoding either the human NTR1 or the rat NTR1, and cultured in 150 mm petri plates with 35 mL of Dulbecco-modified Eagle's medium containing 100 μM minimal essential medium nonessential amino acids (GIBCO) supplemented with 5% (v/v) FetalClone II bovine serum product (Hyclone Labs, Logan, Utah). CHO cells (subculture 9–19) were harvested at confluency. Briefly, the medium from each plate was removed by aspiration, and the cells washed with 6 mL of 50 mM Tris-HCl (pH 7.4) and resuspended in 5–10 mL of Tris-HCl by scraping the cells with a rubber spatula. The resuspended cells were placed into a centrifuge tube and collected by centrifugation at 300× g for five minutes at 4° C. in a GPR centrifuge (Beckman Instruments, Fullerton, Calif.). The cellular pellet (in 50 mM Tris-HCl, 1 mM EDTA, pH 7.4) was stored at […] until radioligand binding was performed.
The supernatant was decanted and discarded, and the cellular pellet was resuspended in 2 mL of Tris-HCl, 1 mM EDTA (pH 7.4) followed by homogenization with a Brinkmann Polytron at setting 6 for ten seconds. Centrifugation was repeated as above and the supernatant was decanted and discarded. The resulting final cellular pellet was resuspended in 50 mM Tris-HCl, lmM EDTA, 0.1% bovine serum albumin, and 0.2 mM bacitracin.
Incubation was at 20° C. for 30 minutes. Each reaction was terminated by addition of cold 0.9% NaCl (5×1.5 mL) followed by rapid filtration through a GF/B filter strip that had been pretreated with 0.2% polyethylenimine.

human NTR1 [2] = target: T2, human NTR1; assay: PI turnover ([3H]IP1) in intact CHO-K1 cells, human NTR1; assay type: cell-based
Method: as §1

[3] = Body weight and food intake in rats; assay type: in vivo, rat; settings: for increase from original body weight at day 15: saline 29%
Method: Two groups of male Sprague-Dawley rats (small and large) and one group of genetically obese Zucker rats were used to study the influence of NT69L on various aspects of body weight. The group of small Sprague-Dawley rats weighed about 270 g at the beginning of the study, while the group of large Sprague-Dawley rats weighted about 400 g. […] The rats had free access to commercial hard rat chow pellets and tap water. During the study, the rats received 100 μL of either saline only or 1 μg/kg, 10 μg/kg, or 1 mg/kg of NT69L on days 1, 2, 7, 8, 11, and 12. Food intake (g), water consumption (mL), and body weight (g) were recorded daily for 15 days. The results were presented as mean ± SEM, or as % of original weight. The data were compared by variance analysis (unpaired or paired Student's t test) and Rank sum test.

NT binding sites = assay: [125I]NT binding in brain tissue of rats chronically treated; assay type: in vivo, rat; settings: 1 mg/kg ip daily four days, 5 mg/kg day five
Method: The effect of chronic treatment with NT69L on the number of NT binding sites within brain was assessed. Rats were treated daily with NT69L (1 mg/kg; ip) for four days. On day five, the rats were treated with 5 mg/kg (ip) NT69L, tested behaviorally, and then sacrificed. The PAG and rest of brain were dissected from the animal and used in NT binding analysis. Briefly, homogenates were prepared from freshly obtained PAG and the rest of brain of rats according to Goedert et al. (Brain Res. 304, 71–81 (1984)) with the following modifications: the assay buffer contained the peptidase inhibitors 1,10 phenanthroline (1 μM) and aprotonin (5 mg/ml). For PAG and rest of brain binding assays, tissues were incubated with 0.3 nM [^125I]NT (NEN, Boston, Mass.) at room temperature for 30 minutes. Total and nonspecific binding was measured and the binding sites were normalized to polypeptide concentrations by BCA protein determination (Pierce Chemical Co., Rockford, Ill.).

[4] = Blood glucose and hormone levels in rats; assay type: in vivo, rat; settings: 1 mg/kg ip
[5] = Catalepsy bar test in rats; assay type: in vivo, rat
Method: The following experiments were performed to assess the ability of NT69L to cause and influence catalepsy. Male Sprague-Dawley rats (150–250 g) or CD-1 mice (24–26 g) were housed in a temperature-controlled room in groups of five with free access to food and water. The animals were kept on a 12 hour light/dark cycle, and all tests were performed during the light cycle. […] Thirty minutes after injection, the animals were tested for catalepsy. For rats, the test involved simply placing the animal's fore paws on a suspended metal bar 10 mm in diameter, 11 cm above the counter. The time elapsed until the animal's fore paws touch the counter was recorded. […] The cut-off time was 20 seconds, and each animal was tested three times for each time point.

5HT2A receptor = 5HT2A receptor (Homo sapiens, UniProt P28223); assay: Competitive binding with [3H]ketanserin, human brain tissue
Chain of 5HT2A receptor (P28223 whole entry): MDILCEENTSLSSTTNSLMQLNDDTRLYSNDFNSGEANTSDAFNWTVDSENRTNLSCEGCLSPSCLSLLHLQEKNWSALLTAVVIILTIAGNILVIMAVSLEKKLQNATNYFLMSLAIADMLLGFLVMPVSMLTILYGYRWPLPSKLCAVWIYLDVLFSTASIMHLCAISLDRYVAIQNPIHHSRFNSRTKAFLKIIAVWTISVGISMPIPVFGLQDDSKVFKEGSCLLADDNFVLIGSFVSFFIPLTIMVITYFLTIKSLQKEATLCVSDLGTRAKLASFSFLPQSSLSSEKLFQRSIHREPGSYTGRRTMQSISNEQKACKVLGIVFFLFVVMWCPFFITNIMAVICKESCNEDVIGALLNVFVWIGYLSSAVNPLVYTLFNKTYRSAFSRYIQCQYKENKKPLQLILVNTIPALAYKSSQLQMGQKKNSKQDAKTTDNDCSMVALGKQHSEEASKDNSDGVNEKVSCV

T2 sequence (P30989 whole entry): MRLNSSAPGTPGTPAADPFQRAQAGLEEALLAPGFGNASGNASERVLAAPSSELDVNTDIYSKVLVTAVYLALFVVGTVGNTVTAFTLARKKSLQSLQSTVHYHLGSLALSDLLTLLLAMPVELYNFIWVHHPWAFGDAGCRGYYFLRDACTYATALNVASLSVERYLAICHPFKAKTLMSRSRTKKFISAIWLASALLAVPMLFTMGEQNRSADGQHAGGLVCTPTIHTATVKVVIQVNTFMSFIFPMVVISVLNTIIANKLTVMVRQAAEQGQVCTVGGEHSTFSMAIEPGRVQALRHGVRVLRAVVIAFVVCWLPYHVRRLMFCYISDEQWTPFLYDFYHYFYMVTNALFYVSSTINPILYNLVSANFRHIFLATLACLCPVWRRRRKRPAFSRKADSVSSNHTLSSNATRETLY
T1 sequence (P20789 whole entry): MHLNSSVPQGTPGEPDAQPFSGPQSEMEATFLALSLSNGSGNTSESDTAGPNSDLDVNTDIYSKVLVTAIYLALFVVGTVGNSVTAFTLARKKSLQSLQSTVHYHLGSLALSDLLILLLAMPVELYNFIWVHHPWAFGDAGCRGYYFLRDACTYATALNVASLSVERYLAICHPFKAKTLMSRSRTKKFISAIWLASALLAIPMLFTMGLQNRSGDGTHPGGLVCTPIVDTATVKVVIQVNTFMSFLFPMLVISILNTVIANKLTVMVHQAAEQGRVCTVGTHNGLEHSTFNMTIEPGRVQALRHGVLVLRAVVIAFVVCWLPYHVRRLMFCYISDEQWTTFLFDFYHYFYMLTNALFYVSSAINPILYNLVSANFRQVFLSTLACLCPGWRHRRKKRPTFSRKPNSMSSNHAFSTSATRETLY

SMILES: CN[C@@H](CCCNC(=N)N)C(=O)N[C@@H](CCCCN)C(=O)N1CCC[C@H]1C(=O)N[C@@H](Cc1cccc2[nH]ccc12)C(=O)N[C@H](C(=O)N[C@@H](CC(C)C)C(=O)O)C(C)(C)C [NT69L] (H-[NMeR]KP[Ala(indol-4-yl)][Tle]L-OH; N-terminus and C-terminus assumed)
- EC50 (rat NTR1): 1.34 ± 0.02 nM
- improvement in potency at PI turnover versus Eisai, rat NTR1 (rat NTR1): about two fold
- Kd (human NTR1 [1]): 1.55 ± 0.09 nM
- increase in binding affinity at the human receptor versus Eisai (human NTR1 [1]): 60 fold
- EC50 (human NTR1 [2]): 2.3 nM
- improvement in potency at PI turnover versus Eisai, human NTR1 (human NTR1 [2]): about 130 fold
- food intake versus saline controls ([3]; Zucker rats, one to two days post injection): significantly reduced
- increase in original body weight by day 15 ([3]; genetically obese Zucker rats, 1 mg/kg ip, saline 31%): 25%
- reduction in original body weight by day 15 ([3]; large Sprague-Dawley rats, 1 mg/kg ip, saline […] increase): 3.0%
- food intake versus saline controls ([3]; large Sprague-Dawley rats, one to two days post injection): significantly (P<0.003) less
- increase from original body weight at day 15 ([3]; small Sprague-Dawley rats, 1 μg/kg ip): 9.0%
- increase from original body weight at day 15 ([3]; small Sprague-Dawley rats, 10 μg/kg ip): 8.4%
- food intake versus saline controls ([3]; small Sprague-Dawley rats, throughout the experiment): significantly (P<0.003) less
- [125I]NT binding, PAG tissue (NT binding sites; control 2.34): 1.89 dpm/μg protein
- [125I]NT binding, rest of brain tissue (NT binding sites; control 3.1): 2.1 dpm/μg protein
- T4 level ([4]; Sprague-Dawley rats, one hour post injection, saline 2.6): 1.8 µg/dL
- corticosterone level ([4]; Sprague-Dawley rats, one hour post injection, saline 6.1): 24.6 µg/dL
- TSH level ([4]; Sprague-Dawley rats, one hour post injection, saline 7.65): 0.9 mIU/L
- glucose level ([4]; Sprague-Dawley rats, one hour post injection, saline 130): 221 mg/dL
- T4 ([4]; Zucker rats, one hour after injection, control 1.47): 1.03 µg/dL
- TSH ([4]; Zucker rats, one hour after injection, control 1.9): 0.43 mIU/L
- corticosterone ([4]; Zucker rats, one hour after injection, control 10.9): 19.7 µg/dL
- blood glucose ([4]; Zucker rats, one hour after injection, control 140): 310 mg/dL
- catalepsy scores in rats ([5]; 5 mg/kg ip): no effect on catalepsy scores
- haloperidol-induced catalepsy, test compound given after ([5]; 5 mg/kg ip 30 minutes after haloperidol 1 mg/kg ip): reversed
- haloperidol-induced catalepsy, test compound given before ([5]; 5 mg/kg ip 30 minutes before haloperidol 1 mg/kg ip): did not exhibit significant cataleptic behavior
- catalepsy on haloperidol injection after chronic treatment ([5]; after the third and fourth days of NT69L 1 mg/kg ip): exhibited catalepsy
- ED50 reversal of haloperidol-induced catalepsy ([5]; haloperidol 120 μg/kg ip, NT69L ip 40 minutes later, scored at 130 minutes): 0.26 mg/kg
- Kd (5HT2A receptor): 34600 nM

— US7098307B2, “Neo-tryptophan” (Mayo Foundation for Medical Education and Research, priority 1998, dated 2006)
